Molecules are shown by their SMILES. “And” between values parts separate entries of the source, which are not always exact repeats. Identical values can stand only once.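 Step 1: Grow cells in 96-well plates. Step 2: Expose to compound for 48 hours at 5 concentrations. Step 3: Interpolate endpoints linearly; if unreached, use highest concentration. GI50 marks 50% less growth. TGI denotes the concentration required for complete inhibition of growth.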 Some results are limits rather than exact numbers.

Data on 9 compounds can be found in PubChem BioAssay (NCI).

Experiment in all cases: NCI tumour cell line growth inhibition, 48 h
For assay [1], the system named is ACHN renal.
In assay [2] the test system is COLO 205 colon.
In assay [3] the test system is HT29 colon.
In assay [4] the test system is SF-295 CNS.
The subject of assay [5] is SK-MEL-5 melanoma.
The test system of assay [6] is SK-MEL-28 melanoma.
Assay [7] concerns DU-145 prostate.
Assay [8] relates to 786-0 renal.
The test system of assay [9] is U251 CNS.
Assay [10] has as its system TK-10 renal.

Consider `COc1cc(C(=O)c2cnc(-c3c[nH]c4cccc(C)c34)[nH]2)cc(OC)c1OC`, for which the GI50 in assay [1] was 0.00846 µM; in assay [2], 0.00513 µM; in [3] it was 0.00643 µM; in [5] it was 0.00365 µM; in assay [6] it was 0.99 µM; in assay [7], 0.00756 µM. The results for the GI50 in assay [8] and in [9] were 0.00681 µM and 0.00639 µM, respectively. The TGI is 26.7 µM in assay [1]; 0.0412 µM in assay [2]; 52.9 µM in [4]; 0.0221 µM and 0.0366 µM in assay [5]; 97.4 µM in [6]; greater than 100 µM in assay [7]. The TGI in assay [8] was greater than 100 µM; in assay [9] it was 49.1 µM.
Turning to `O=C(/C=C/c1ccc(O)c(O)c1)N1CCN(c2ccc(Cl)cc2)CC1`, the GI50 was 4.01 µM in assay [1]; 5.11 µM in assay [2]; 3.59 µM in [10]; 13.1 µM in assay [3]; 19.1 µM in [4]; 2.65 µM in assay [5]. In addition, the GI50 in assay [6] is 11.5 µM; in assay [7] it was 10.5 µM; in [8], 9.39 µM; in [9] it was 5 µM. Further, the TGI is 38.2 µM in assay [1]; 19.7 µM in assay [2]; 26.2 µM in [10]; 32 µM in [3]; greater than 100 µM in assay [4]; 10.2 µM in assay [5]. The TGI came to 58.5 µM in [6], 47.5 µM in assay [7], 37 µM in [8] and 23.3 µM in [9].
For `C=CCC(N[C@@H](CO)c1ccccc1)c1ccc2ccccc2n1` (stereo partly drawn), the GI50 in assay [1], in [2], in assay [10], in [3], in [4] and in [6] was greater than 100 µM in each case. The GI50 in assay [7], in assay [8] and in assay [9] was greater than 100 µM in each case. In addition, the TGI in assay [1], in assay [2], in [10], in assay [3], in assay [4] and in assay [6] was greater than 100 µM each time. In addition, the TGI in assay [7], in assay [8] and in [9] was greater than 100 µM in each case.
For `CCn1c(-c2nonc2N)nc2ccccc21`, the GI50 is greater than 25 µM in assay [1]; greater than 25 µM in assay [2]; 7.32 µM in assay [10]; greater than 25 µM in [3]; greater than 25 µM in [4]; greater than 25 µM in assay [5]. Moreover, the GI50 in assay [6], in [7], in assay [8] and in [9] was greater than 25 µM each time. In addition, the TGI in [1], in assay [2], in assay [10], in [3], in assay [4] and in assay [5] was greater than 25 µM in each case. For the same compound, the TGI in assay [6], in assay [7], in assay [8] and in assay [9] was greater than 25 µM in each case.
Take `O=C1CCC(c2ccccc2)=NN1c1nc2ccccc2s1`: the TGI was greater than 100 µM in assay [1]; 18.1 µM in assay [2]; greater than 88 µM in [10]; greater than 100 µM in [3]; greater than 85.2 µM in assay [4]; 53.1 µM in [5]. The TGI is greater than 100 µM in [6], 64.6 µM in assay [7], greater than 100 µM in assay [8] and greater than 100 µM in assay [9].
On to `CN(C)CCCN1c2ccccc2Sc2ccc(C(F)(F)F)cc21`, for which the GI50 is 1.81 µM in assay [1]; 1.38 µM in [2]; 1.77 µM in assay [10]; 1.35 µM in assay [3]; 1.65 µM in assay [4]; 1.57 µM in [5]. Besides, the GI50 was 1.68 µM in assay [6], 1.79 µM in assay [7], 1.63 µM in assay [8] and 1.69 µM in [9]. For the same compound, the TGI in [1] is 3.85 µM and 28.8 µM and 28.2 µM; in assay [10], 3.24 µM and 28.8 µM and 31.6 µM; in assay [3], 2.82 µM and 25.3 µM; in assay [4], 3.23 µM and 30.4 µM and 29.1 µM; in [7], 3.22 µM and 31.2 µM; in assay [8] it was 3.09 µM and 27.1 µM and 27.9 µM. Also, the TGI in [9] was 3.14 µM and 29.6 µM and 29.4 µM.
Regarding `O=C1C(Cl)=C(Nc2ccc(S(=O)(=O)c3ccc(NC4=C(Cl)C(=O)c5ccccc5C4=O)cc3)cc2)C(=O)c2ccccc21`, the GI50 in assay [1] is 1.31 µM; in [2], 1.74 µM; in [10], 1.67 µM; in [3], 2 µM; in assay [4] it was 3.27 µM; in assay [5], 1.71 µM. Further, the values for the GI50 in assay [6], in assay [7] and in assay [8] were 1.8 µM, 1.91 µM and 1.86 µM, respectively. Besides, the TGI worked out at 2.69 µM in assay [1]; 3.22 µM in assay [2]; 3.04 µM in assay [10]; 5.02 µM in [3]; 11.8 µM in [4]; 3.49 µM in assay [5]. The TGI in [6] was 3.28 µM; in assay [7], 3.69 µM; in assay [8], 3.29 µM.
For `C/C=C/C=C/c1cc2cc3c(c(O)c2c(=O)[nH]1)C1(CC3)C(O)=c2c(=O)c3c(=O)cc(OC)c(=O)c=3c(=O)c2=C1O` (stereo not drawn), the TGI in assay [1] was 1.7 µM and 16.5 µM; in assay [2], 1.23 µM and 6.92 µM; in assay [10], 4.13 µM and 16.4 µM; in [3], 1.37 µM and 13.5 µM; in assay [4] it was 2.91 µM and 8.02 µM; in assay [6] it was 4.93 µM and 20.1 µM. The TGI in assay [7] is 15.8 µM; in assay [8], 4.37 µM and 8.39 µM; in assay [9], 0.851 µM and 5.59 µM. Moreover, the GI50 in assay [8] was 0.41 µM and 1.91 µM.
With `O=[N+]([O-])c1cccc(/C=N/Nc2ccc3ccccc3n2)c1O`, the TGI is 9.48 µM in assay [2]; greater than 44.9 µM in [10]; 20.5 µM in assay [3]; 14.2 µM in assay [4]; 3.45 µM in assay [5]; greater than 65.6 µM in assay [6]. Moreover, the TGI in assay [7] came out at 17.7 µM; in [8], 12.7 µM; in assay [9], 16.4 µM.
